Entries after “also recorded” stand apart in the source; their conditions may differ. Structures can show the parent of a compound that is named as a salt. Where two headings read alike, the source gives them in different places.
How the values were obtained:
[1] = Solubility test in simulated gastric fluid; type: physicochemical; details: dihydrochloride; for Solubility: 37° C., after 60 minutes, paddle 250 rpm, free body conversion
Experimental: Solubilities of Crystalline form A and Crystalline form B of Compound (I) in a simulated gastric fluid were measured by the method below (free body conversion).
10 times concentrated Liquid 1 used for the disintegration test of the Japanese Pharmacopoeia (purchased from Kanto Chemical Co., Inc.) was diluted 10-fold with purified water to give a simulated gastric fluid. Approximately 80 mg of the crystalline form for measurement were precisely measured, transferred to a 25 ml volumetric flask, and dissolved in methanol to bring the total volume to 25 ml. 2 ml of the resulting solution were transferred to a 50 ml volumetric flask, and the simulated gastric fluid was added thereto to bring the total volume to 50 ml to give a standard solution.
By using an elution testing machine NTR-6100A (Toyama Sangyo Co., Ltd.), approximately 100 mg of the subject crystalline form were added to 500 ml of the simulated gastric fluid at 37° C., and agitated with a paddle (250 rpm). After 60 minutes, samples were taken from the test solution. The absorbance of the standard solution and test solution samples was measured at 289 nm and 360 nm by using a UV visible spectrophotometer.
weighing amount of the crystalline form used for the preparation of the standard solution (mg): WS;
absorbance of the standard solution at 289 nm: AS289;
absorbance of the standard solution at 360 nm: AS360;
absorbance of the test solution at 289 nm: AT289;
absorbance of the test solution at 360 nm: AT360;
molecular weight of the dihydrochloride monohydrate of Compound (I): 593.52; and
molecular weight of the free body of Compound (I): 502.58

[2] = molecular target: T1, peroxisome proliferator-activated receptor (PPAR) γ (Homo sapiens, UniProt P37231); details: disclosed in Patent Literature 1-5; cited from earlier work
T1 sequence (P37231 1-505): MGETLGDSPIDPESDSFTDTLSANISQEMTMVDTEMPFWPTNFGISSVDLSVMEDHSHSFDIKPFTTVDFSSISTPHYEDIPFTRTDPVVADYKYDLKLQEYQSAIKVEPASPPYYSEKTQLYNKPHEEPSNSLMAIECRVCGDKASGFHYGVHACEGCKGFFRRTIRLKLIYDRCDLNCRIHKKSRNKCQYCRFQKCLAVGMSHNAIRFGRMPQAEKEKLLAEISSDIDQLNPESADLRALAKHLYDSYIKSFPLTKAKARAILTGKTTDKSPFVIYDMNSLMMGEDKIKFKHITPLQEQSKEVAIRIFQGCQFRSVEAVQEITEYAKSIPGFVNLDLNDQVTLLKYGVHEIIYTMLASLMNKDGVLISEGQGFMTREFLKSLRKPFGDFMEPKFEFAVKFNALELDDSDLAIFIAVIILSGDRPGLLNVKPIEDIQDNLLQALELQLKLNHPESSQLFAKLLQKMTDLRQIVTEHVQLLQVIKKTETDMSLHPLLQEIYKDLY

human leukemia cells = details: Test Example 2 in WO 2007/091622; cited from earlier work
human kidney cancer = details: Test Example 7, cited from earlier work
cancer cells = details: cited from earlier work
[3] = tested on: human stomach cancer cells, human breast cancer cells, small cell lung cancer, pancreas cancer cells, prostate cancer cells, kidney cancer cells …; details: Test Example 1 in WO 2007/091622; cited from earlier work
[4] = tested on: human colon cancer cell lines; details: Test Example 3 in WO 2007/091622; cited from earlier work
[5] = tested on: human non-small cell lung cancer; details: Test Example 5, cited from earlier work

## Cc1cc(Oc2ccc3nc(COc4ccc(CC5SC(=O)NC5=O)cc4)n(C)c3c2)cc(C)c1N (single isomer, unassigned) [Crystalline form A, monohydrate of 5-(4-{[6-(4-amino-3,5-dimethylphenoxy)-1-methyl-1-H-benzimidazol-2-yl]methoxy}benzyl)-1,3-thiazolidine-2,4-dione dihydrochloride]
[1]
  Solubility: 76.92 µg/mL
  Solubility, assessment in words: sufficient solubility as a pharmaceutical ingredient

## Cc1cc(Oc2ccc3nc(COc4ccc(CC5SC(=O)NC5=O)cc4)n(C)c3c2)cc(C)c1N (single isomer, unassigned) [Crystalline form B, monohydrate of 5-(4-{[6-(4-amino-3,5-dimethylphenoxy)-1-methyl-1-H-benzimidazol-2-yl]methoxy}benzyl)-1,3-thiazolidine-2,4-dione dihydrochloride]
[1]
  Solubility: 155.25 µg/mL
  Solubility, assessment in words: sufficient solubility as a pharmaceutical ingredient; also recorded: higher solubility than the Compound (I) which has been known

## Cc1cc(Oc2ccc3nc(COc4ccc(CC5SC(=O)NC5=O)cc4)n(C)c3c2)cc(C)c1N (centres unmarked) [Compound (I), 5-(4-{[6-(4-amino-3,5-dimethylphenoxy)-1-methyl-1-H-benzimidazol-2-yl]methoxy}benzyl)-1,3-thiazolidine-2,4-dione]
[2]
  ability of PPARγ activation: significant ability of peroxisome proliferator-activated receptor (PPAR) γ activation

## Cc1cc(Oc2ccc3nc(COc4ccc(CC5SC(=O)NC5=O)cc4)n(C)c3c2)cc(C)c1N (centres unmarked) [dihydrochloride of Compound (I), 5-(4-{[6-(4-amino-3,5-dimethylphenoxy)-1-methyl-1-H-benzimidazol-2-yl]methoxy}benzyl)-1,3-thiazolidine-2,4-dione dihydrochloride]
Human leukemia cells
  proliferation suppressing activity in human leukemia cells: inhibits significantly proliferation suppressing activity
Human kidney cancer; alone
  antitumor activity: exerts an antitumor activity
Human kidney cancer; in combination with a VEGFR inhibitor or a Raf kinase inhibitor
  antitumor activity, combination: enhanced antitumor activity
Cancer cells; in combination with a VEGFR inhibitor or a Raf kinase inhibitor, Test Example 6
  activity to suppress proliferation in cancer cells, combination: synergetic activity to suppress proliferation
Cancer cells; in combination with an epidermal growth factor receptor (EGFR) inhibitor, Test Example 4
  activity to suppress proliferation in cancer cells, combination: synergetic activity to suppress proliferation
[3]
  activity to suppress proliferation of cancer cells: significant activity to suppress proliferation
[4]
  antitumor activity in vivo: significant antitumor activity
[5]; alone
  antitumor activity: exerts an antitumor activity
[5]; in combination with an EGFR inhibitor
  antitumor activity, combination: enhanced antitumor activity
